Test: gradient 5% acetonitrile 3 min, to 50% in 2 min, to 85% in 15 min, held 3 min, 100 µL/min
Settings: column: Zorbax Extend-C18 2.1 x 50 mm; eluents: water / acetonitrile, 0.1% formic acid
Summary of the method: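 Each retention time is based on an adduct peak selected computationally and verified by manual inspection. Measurements used HPLC–quadrupole time-of-flight mass spectrometry in positive and negative ionization mode on mixtures of ~100 pure standards. Chromatography ran on a Zorbax Extend-C18 column (2.1 × 50 mm, 1.8 μm) at 100 μL/min with water and acetonitrile, each containing 0.1% formic acid, and dead and dwell volumes of 40 μL and 900 μL.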

Compound | RP-LC retention time
COC(=O)c1c2c(nc3ccccc13)CCN(C(=O)Nc1cc(OC)ccc1OC)C2 | 839 s
CC(=O)Nc1c(C(=O)Nc2ccc(Cl)cc2)nnn1-c1ccccc1 | 838 s
Cc1ccc(C(=O)NCCn2c(C)cnc2C2CC2)s1 | 584 s
CCCCNC(=O)C1(c2ccc(NC(=O)C(C)C)cc2)CCCCC1 | 935 s
CCCn1c(=O)sc2cc(S(=O)(=O)N3CCC(C(=O)Nc4cccc(OC)c4)CC3)ccc21 | 978 s
CCn1cc(S(=O)(=O)N2CC3(CCCCC3)CC2COc2ccc(OC)cc2)cn1 (stereo not drawn) | 1090 s
O=C(c1csc(N2CCN(c3ccccc3)CC2)n1)N1CCN(c2ccccn2)CC1 | 685 s
O=c1cc[nH]c2c(Cl)cccc12 | 676 s
Cc1ccc2c(c1)N(S(C)(=O)=O)CCC(C(=O)Nc1cccc(Cl)c1C)O2 (stereo not drawn) | 1020 s
Cc1cc(N2CCN(C)CC2)nc2ccc(NC(=S)N3CCC(C)CC3)cc12 | 604 s
CCCC(C)NC(=O)CN1c2ccc(F)cc2-c2ccccc2S1(=O)=O (stereo not drawn) | 950 s
CS(=O)(=O)N1CCCc2cc(C(=O)Nc3ccc(Br)cc3)ccc21 | 951 s
COc1nn(C)cc1C(=O)NCC1(c2ccc(F)cc2)CC1 | 751 s
Cc1ccc(S(=O)(=O)NCC2CN(C(C)C)CC23CCCCC3)c(C)c1 (stereo not drawn) | 738 s
Cn1nccc1C(=O)N1CCCC1c1ccccc1Cl (stereo not drawn) | 823 s
CCCN1C(=O)COc2ccc(-c3csc(NC(=O)CC)n3)cc21 | 861 s
Cc1cc(=O)n(CC(=O)Nc2ccc(Cl)cc2)c(N2CCCCC2)n1 | 708 s
COc1ccccc1-c1nnc(-c2cc(S(=O)(=O)N(C)C)ccc2Cl)o1 | 904 s
CC(C)(C)c1ccc(C(=O)N2CCc3nc[nH]c3C2)cc1 | 634 s
CCCn1nnc2cc(S(=O)(=O)N3CCCC(C(=O)N4CCN(c5ccccn5)CC4)C3)ccc21 (stereo not drawn) | 652 s
COc1ccc(Cl)cc1NC(=O)N1CCC(COCc2ccccc2)CC1 | 1120 s
COCCN1CCC(N2CCN(S(=O)(=O)c3cccc(Br)c3)CC2)C1=O (stereo not drawn) | 612 s

Compound | RP-LC retention time
COCCC1(NS(C)(=O)=O)CCN(C(=O)C2(c3ccc(OC)cc3)CC2)CC1 | 710 s
CCOc1ccc(C2CNC(=O)C2C(=O)OC)cc1OCC (stereo not drawn) | 694 s
N#Cc1ccc(C(=O)N2CCCC(COc3ccc(C(=O)NC4CC4)cc3)C2)cc1 (stereo not drawn) | 757 s
CCOC(=O)c1sc2ccccc2c1S(=O)(=O)N1CCN(c2ccccn2)CC1 | 794 s
CCOC(=O)C1=C(CN2CCN(Cc3ccccc3)CC2)NC(=O)NC1c1cccc(OC)c1OC (stereo not drawn) | 660 s
CN(C)S(=O)(=O)c1ccc2c(c1)N(CC(=O)Nc1ccccn1)C(=O)C1CCCCN21 (stereo not drawn) | 795 s
N#Cc1cccc(C(=O)Nc2cnn(-c3ncc(N4CCCCC4)cn3)c2)c1 | 847 s
Cc1nn(C)c2c(=O)n(CC(=O)N3CCN(c4ccccn4)CC3)ccc12 | 558 s
O=S(=O)(c1cccnc1)N1CCCC(c2nnc(C(F)(F)F)o2)C1 (stereo not drawn) | 747 s
CCOc1ccc(-c2[nH]ncc2CNS(=O)(=O)Cc2ccc(Cl)cc2)cc1 | 861 s
CC(C)c1ccc(N2C(=O)CN(S(C)(=O)=O)CC2(C)C(=O)NCc2ccccc2)cc1 (stereo not drawn) | 860 s
CNCCC(Oc1ccccc1C)c1ccccc1 (stereo not drawn) | 778 s
COc1ccc(NC(=O)NCCC2CCN(S(=O)(=O)c3ccccc3)CC2)cc1 | 822 s
COc1ccccc1CNC(=O)C1CCCN1S(=O)(=O)c1cc2c(cc1C)NC(=O)CO2 (stereo not drawn) | 764 s
O=S(=O)(c1cc(-c2noc(C3CCCC3)n2)cs1)N1CCOCC1 | 1200 s
Cc1cccc(N2CCN(C(=O)CCC(=O)N3CCCn4nc(-c5cccn5C)cc43)CC2)c1C | 968 s
CC1CCN(c2ncc3c(n2)CCC(C(=O)NCc2ccc(N4CCOCC4)cc2)C3)CC1 (stereo not drawn) | 715 s
NS(=O)(=O)c1ccc(CCNC(=O)c2ccc(-n3cnnn3)cc2)cc1 | 622 s
CCN1CCN(c2cc(C)c3cc(NC(=S)N4CCN(c5ccccc5)CC4)ccc3n2)CC1 | 603 s
CCN(CC)S(=O)(=O)c1ccc2c(c1)N(CC(=O)NCCC(C)C)C(=O)C1CCCCN21 (stereo not drawn) | 991 s
CCCN(CCC)C(=O)C(CCC(=O)O)NC(=O)c1ccccc1 (stereo not drawn) | 822 s
CCCN1C(=O)c2c(C(=O)NCCc3cccc(C)c3)ncn2CC1(C)C(=O)NC1CCCC1 (stereo not drawn) | 918 s

More lines, now with the values ahead:

RP-LC retention time | Compound
1310 s | CC(C)CC(=O)Nc1ccc(-c2nc(-c3ccc(Cl)cc3)no2)cc1
1140 s | Cc1ccccc1-c1nc(C2CCN(S(=O)(=O)c3ccccc3)CC2)no1
692 s | O=C(COc1ccccc1)NCC1CC(=O)N(Cc2ccc(F)cc2)C1 (stereo not drawn)
1240 s | Cc1cccc(-c2nc(Cn3nnc(-c4nc(-c5ccc6c(c5)OCO6)no4)c3C)c(C)o2)c1
790 s | CCOc1ccccc1C(=O)Nc1cccn2c(C)nnc12
1030 s | Brc1ccc(-c2noc(CSc3nccn3-c3ccccc3)n2)cc1
875 s | O=c1cc(-c2cc3c(ccc4ccccc43)oc2=O)c2ccc(O)cc2o1
1160 s | Cc1ccc(-c2nnc(-c3nn(C)c4c3CN(S(=O)(=O)c3ccc(C(C)C)cc3)CC4)o2)cc1
999 s | O=c1ccc(-c2cccc(Cl)c2)nn1CCc1nc(-c2ccc3c(c2)OCO3)no1
924 s | Cc1oc(-c2ccc(NC(=O)C3CCCCC3)cc2)nc1Cn1cccn1
784 s | CN(CCc1noc(-c2ccc(C(=O)N3CCCC3)cc2)n1)C(=O)c1c(F)cccc1F
754 s | O=C(NCc1ccccc1C(F)(F)F)C1CCCN(c2ncnc3nn(-c4ccc(F)cc4)cc23)C1 (stereo not drawn)
790 s | CCC(=O)N1CCc2c(sc3ncnc(NCc4ccccc4)c23)C1
710 s | Cc1cccc(C)c1OCC(O)Cn1c(C2CC2)nc2ccccc21 (stereo not drawn)
722 s | O=C(NCc1ccc(F)cc1F)C1CCCN(c2ccc(-c3ccccc3)nn2)C1 (stereo not drawn)
1100 s | CC1=NS(=O)(=O)N(Cc2ccccc2)C=C1C(=O)OCc1ccc(F)c(F)c1
961 s | Cc1ccc(C)c(NC(=O)Cn2nc3cc(-c4ccccc4)nc(C)n3c2=O)c1
662 s | CCN(CC)c1ccc(NC(=O)C2CCCN(c3ccc(=O)n(-c4cccc(Cl)c4)n3)C2)c(C)c1 (stereo not drawn)
1000 s | O=C(Cn1cccc1-c1nc(-c2ccc3c(c2)OCO3)no1)Nc1cc(F)ccc1F
985 s | CCCCn1cc(S(=O)(=O)Nc2ccccc2C)c2cccnc21
808 s | Cc1ccc(-c2ccc(N3CCCC(C(=O)NCCc4cccs4)C3)nn2)cc1C (stereo not drawn)
835 s | COC(=O)c1cnn2c(C)c(Cc3ccccc3)c(C)nc12

RP-LC retention time | Compound
857 s | Cc1ccc(NC(=O)Cn2nc(N(C)C)c3ccccc3c2=O)cc1
1140 s | O=c1c2cc(-c3cccs3)nn2cnn1Cc1nc(-c2cccc(C(F)(F)F)c2)no1
793 s | Cc1nc(C(=O)NCC(=O)O)c(O)c2ccc(Oc3ccccc3)cc12
1260 s | CCOc1ccc(C(=O)Nc2nc(-c3ccccc3)cs2)cc1Cl
648 s | O=C(c1cc(-c2ccncc2)n[nH]1)N1CCCC(C(=O)N2CC=C(c3ccccc3)CC2)C1 (stereo not drawn)
632 s | Cc1cc(=O)c(OCc2ccccc2F)cn1CC(=O)NCc1ccccc1Cl
1230 s | CCCn1c2ccccc2c2nnc(SC(CC)C(=O)Nc3nc(-c4ccccc4)cs3)nc21 (stereo not drawn)
787 s | CC1CCN(c2ccc(-c3noc(CN4CCN(c5ccccc5)CC4)n3)cn2)CC1
857 s | CSc1ccc(CNC(=O)COc2cc(C)nc(N3CCN(c4ccccc4)CC3)n2)cc1
793 s | Cc1nnc(N2C(=O)C(O)=C(C(=O)c3ccco3)C2c2ccc([N+](=O)[O-])cc2)s1 (stereo not drawn)
914 s | CCOc1ccccc1-c1noc(Cn2cnc3c(oc4ccccc43)c2=O)n1
619 s | Cc1ccc2oc(C(=O)NCC(c3ccccc3)N(C)C)cc(=O)c2c1 (stereo not drawn)
1060 s | CCc1nc(-c2csc(S(=O)(=O)N3CCC(C(=O)Nc4ccc(C)c(F)c4)CC3)c2)no1
864 s | COC(=O)c1c(NC(C)c2ccccc2)c2cccc(Cl)c2[nH]c1=O (stereo not drawn)
935 s | O=C(Nc1ccc(F)cc1Br)c1cnc(-c2ccccc2)nc1-c1ccncc1
794 s | Cc1cc(=O)n(CC(=O)Nc2cccc(C)c2C)c(N(C)Cc2ccccc2)n1
967 s | Fc1ccc(-c2nn3c(CSc4ccccc4)nnc3s2)cc1
738 s | O=C(Nc1ccccc1F)C1CCN(C(=O)c2ncn3c2COC(c2ccc(F)cc2)C3)CC1 (stereo not drawn)
1030 s | O=C(COc1ccccc1-c1nnc(-c2ccccc2)o1)NCc1ccc2c(c1)OCO2
827 s | Cn1cc(-c2noc(-c3ccc(F)cc3)n2)ccc1=O
1110 s | CCOC(=O)c1ccc(OC(=O)c2cn(CC)c(=O)c3ccccc23)cc1
604 s | c1cc(-c2nc(-c3ccc(OC4CNC4)cc3)no2)ccn1
